# Results as given in article PMC9658812, “New Pyrimidine-5-Carbonitriles as COX-2 Inhibitors: Design, Synthesis, Anticancer Screening, Molecular Docking, and In Silico ADME Profile Studies” (Molecules, 2022).
# What was measured:
# [1] = target: T1, human COX-2 (Homo sapiens, UniProt P35354); experiment: COX-2 inhibition assay (fluorometric inhibitor screening kit); format: biochemical; conditions: for inhibition at 10 µM: 10^−5 M; for inhibition at 10 µM / inhibition at 1 µM / inhibition at 0.1 µM / inhibition at 0.01 µM / inhibition at 0.001 µM: mean of three experiments ± SD, read-out: COX-2 Inhibition (%); for inhibition at 1 µM: 10^−6 M; for inhibition at 0.1 µM: 10^−7 M; for inhibition at 0.01 µM: 10^−8 M; for inhibition at 0.001 µM: 10^−9 M; for IC50: human COX-2 assay kit, three experiments; for fold more potent than Nimesulide (COX-2 IC50): versus Nimesulide
# T1 construct: purchased Biovision, Zurich, Switzerland
# T1 sequence (P35354 18-604): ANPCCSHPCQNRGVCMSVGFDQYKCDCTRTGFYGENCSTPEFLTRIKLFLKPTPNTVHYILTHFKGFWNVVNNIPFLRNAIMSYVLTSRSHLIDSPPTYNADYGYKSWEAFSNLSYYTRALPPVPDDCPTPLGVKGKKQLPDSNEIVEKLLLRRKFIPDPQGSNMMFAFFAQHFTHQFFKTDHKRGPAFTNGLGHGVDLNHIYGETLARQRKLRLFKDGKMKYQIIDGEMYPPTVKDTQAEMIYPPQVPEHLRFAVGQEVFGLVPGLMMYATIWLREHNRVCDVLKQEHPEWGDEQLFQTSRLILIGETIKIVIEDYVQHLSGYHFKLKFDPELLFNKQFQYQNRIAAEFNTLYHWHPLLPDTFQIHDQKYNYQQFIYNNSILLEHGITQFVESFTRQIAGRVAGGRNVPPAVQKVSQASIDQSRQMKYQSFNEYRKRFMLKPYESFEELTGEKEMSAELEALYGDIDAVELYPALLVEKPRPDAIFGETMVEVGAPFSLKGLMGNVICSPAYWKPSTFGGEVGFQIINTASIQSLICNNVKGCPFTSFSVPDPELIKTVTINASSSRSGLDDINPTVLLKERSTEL
# Source text: Fluorometric inhibitor screening kits (Biovision, Zurich, Switzerland) were utilized for the COX-2 enzyme inhibition test, as described before.
# [2] = system: A549 cells (non-small-cell lung cancer); experiment: MTT cytotoxicity assay, A549; conditions: for IC50: Homo sapiens, A549, 24 h, read-out: Cytotoxicity IC50 A549
# Experimental: (§1) Breast carcinoma (MCF-7), renal cell carcinoma (A498), lung cancer (A549), and liver carcinoma (HepG2) cell lines, in addition to non-tumorigenic WI-38 cell lines, were collected from the American Type Culture Collection. The cells were grown in DMEM (Invitrogen/Life Technologies) containing 1% penicillin-streptomycin, 10 µg/mL of insulin (Sigma), and 10% FBS (Hyclone).
# (§2) To check the possible cellular toxicity, synthesized compounds were subjected to the MTT [3-(4,5-dimethylthiazol-2-yl)-2,5-diphenyltetrazolium bromide] assay against the MCF7, A549, A498, and HepG2 cell lines. […] Later, 2.0–3.0 mL of Trypsin EDTA solution was added into the flask containing the cell layers for 5–15 min to disperse the cell layer, which was observed through an inverted microscope. By gently pipetting, aspirated cells were added into a 6.0–8.0 mL growth medium. […] An amount of 20 μL of a 5-mg/mL MTT solution was applied after a 24-h drug-treatment period, and it was incubated for 4 h. To dissolve the produced purple formazan, each well received 100 μL of dimethyl sulfoxide (DMSO).
# [3] = system: WI-38 cells (normal cell derived from lung tissue); experiment: Cytotoxicity on non-tumorigenic WI-38 cell line; conditions: Homo sapiens, WI-38, read-out: WI-38 IC50
# Experimental: as §1, §2
# [4] = system: MCF7 cells (breast carcinoma); experiment: MTT cytotoxicity assay, MCF7; conditions: for IC50: Homo sapiens, MCF7, 24 h, read-out: Cytotoxicity IC50 MCF7; for fold more cytotoxic than doxorubicin, MCF7: versus doxorubicin
# Experimental: as §1, §2
# [5] = system: A498 cells (renal carcinoma); experiment: MTT cytotoxicity assay, A498; conditions: for IC50: Homo sapiens, A498, 24 h, read-out: Cytotoxicity IC50 A498; for fold more cytotoxic than doxorubicin, A498: versus doxorubicin
# Experimental: as §1, §2
# [6] = system: HepG2 cells (liver carcinoma); experiment: MTT cytotoxicity assay, HepG2; conditions: for IC50: Homo sapiens, HepG2, 24 h, read-out: Cytotoxicity IC50 HepG2
# Experimental: as §1, §2
compound,measurement,setting,value
"COc1ccc(-c2nc(NCc3nc4ccccc4[nH]3)nc(OC)c2C#N)cc1 [Compound 3a, 2-((1H-Benzo[d]imidazol-2-yl)methylamino)-4-methoxy-6-(4-methoxyphenyl)pyrimidine-5-carbonitrile]",inhibition at 10 µM,[1],71.2 ± 1.13%
same,inhibition at 1 µM,[1],62.5 ± 0.95%
same,inhibition at 0.1 µM,[1],41.1 ± 0.55%
same,inhibition at 0.01 µM,[1],32 ± 0.61%
same,inhibition at 0.001 µM,[1],22.3 ± 0.45%
same,IC50,[1],230 ± 10 nM
"COc1ccc(-c2nc(NCc3nc4ccccc4o3)nc(OC)c2C#N)cc1 [Compound 3b, 2-(Benzo[d]oxazol-2-Ylmethylamino)-4-methoxy-6-(4-methoxyphenyl)pyrimidine-5-carbonitrile]",IC50,[2],19 ± 0.52 nM
same,IC50,[3],94700 ± 2500 nM
same,IC50,[4],3 ± 0.1 nM
same,"fold more cytotoxic than doxorubicin, MCF7",[4],three
same,IC50,[5],4 ± 0.15 nM
same,"fold more cytotoxic than doxorubicin, A498",[5],two-fold
same,melting point,,> 300 °C
same,inhibition at 10 µM,[1],40.3 ± 0.62%
same,inhibition at 1 µM,[1],33.3 ± 0.77%
same,inhibition at 0.1 µM,[1],22.4 ± 0.59%
same,inhibition at 0.01 µM,[1],77.01 ± 0.03%
same,inhibition at 0.001 µM,[1],61.3 ± 0.96%
same,IC50,[1],200 ± 10 nM
same,fold more potent than Nimesulide (COX-2 IC50),[1],approximately 4.7 fold
same,IC50,[6],22 ± 0.62 nM
"COc1ccc(-c2nc(NCc3nc4ccccc4s3)nc(OC)c2C#N)cc1 [Compound 3c, 2-(Benzo[d]thiazol-2-ylmethylamino)-4-methoxy-6-(4-methoxyphenyl)pyrimidine-5-carbonitrile]",melting point,,> 300 °C
same,inhibition at 10 µM,[1],74.3 ± 1.03%
same,inhibition at 1 µM,[1],57.1 ± 0.92%
same,inhibition at 0.1 µM,[1],37.6 ± 0.6%
same,inhibition at 0.01 µM,[1],32.5 ± 0.53%
same,inhibition at 0.001 µM,[1],21 ± 0.4%
same,IC50,[1],290 ± 10 nM
"COc1ccc(-c2nc(NCc3cc4ccccc4s3)nc(OC)c2C#N)cc1 [Compound 3d, 2-(Benzo[b]thiophen-2-ylmethylamino)-4-methoxy-6-(4-methoxyphenyl)pyrimidine-5-carbonitrile]",melting point,,> 300 °C
same,inhibition at 10 µM,[1],38.3 ± 0.63%
same,inhibition at 1 µM,[1],31.6 ± 0.54%
same,inhibition at 0.1 µM,[1],21.5 ± 0.49%
same,inhibition at 0.01 µM,[1],70.3 ± 1.11%
same,inhibition at 0.001 µM,[1],60.4 ± 0.98%
same,IC50,[1],340 ± 10 nM
"COc1ccc(-c2nc(NS(=O)(=O)c3ccccc3)nc(OC)c2C#N)cc1 [Compound 5a, N-(5-Cyano-4-methoxy-6-(4-methoxyphenyl)pyrimidin-2-yl)benzenesulfonamide]",melting point,,241 to 243 °C
same,inhibition at 10 µM,[1],40.1 ± 0.57%
same,inhibition at 1 µM,[1],30.2 ± 0.49%
same,inhibition at 0.1 µM,[1],23.6 ± 0.51%
same,inhibition at 0.01 µM,[1],72.2 ± 1.31%
same,inhibition at 0.001 µM,[1],61.3 ± 0.84%
same,IC50,[1],260 ± 10 nM
"COc1ccc(-c2nc(NS(=O)(=O)c3ccc(C)cc3)nc(OC)c2C#N)cc1 [Compound 5b, N-(5-Cyano-4-methoxy-6-(4-methoxyphenyl)pyrimidin-2-yl)-4-methylbenzene-sulfonamide]",IC50,[2],3 ± 0.07 nM
same,"fold more cytotoxic than doxorubicin, A549",[2]; versus doxorubicin,4.3 fold
same,IC50,[3],89600 ± 2750 nM
same,IC50,[4],2 ± 0.05 nM
same,"fold more cytotoxic than doxorubicin, MCF7",[4],4.5 fold
same,IC50,[5],1 ± 0.05 nM
same,"fold more cytotoxic than doxorubicin, A498",[5],7 fold
same,melting point,,283 to 285 °C
same,inhibition at 10 µM,[1],40.2 ± 0.58%
same,inhibition at 1 µM,[1],36.2 ± 0.44%
same,inhibition at 0.1 µM,[1],24.7 ± 0.31%
same,inhibition at 0.01 µM,[1],75.2 ± 1.11%
same,inhibition at 0.001 µM,[1],59.5 ± 1.04%
same,IC50,[1],180 ± 10 nM
same,fold more potent than Nimesulide (COX-2 IC50),[1],~9.3 fold
same,IC50,[6],12 ± 0.38 nM
same,"fold more cytotoxic than doxorubicin, HepG2",[6]; versus doxorubicin,2.1 fold
"COc1ccc(-c2nc(NS(=O)(=O)c3ccc(C(C)(C)C)cc3)nc(OC)c2C#N)cc1 [Compound 5c, 4-Tert-Butyl-N-(5-cyano-4-methoxy-6-(4-methoxyphenyl)pyrimidin-2-yl)benzene sulfonamide]",melting point,,276 to 278 °C
same,inhibition at 10 µM,[1],42.1 ± 0.93%
same,inhibition at 1 µM,[1],28.7 ± 0.51%
same,inhibition at 0.1 µM,[1],20.3 ± 0.52%
same,inhibition at 0.01 µM,[1],73.2 ± 1.21%
same,inhibition at 0.001 µM,[1],64.3 ± 1.05%
same,IC50,[1],260 ± 10 nM
